{"source": "patent US20040253255A1", "about": "“Biological compositions and methods for treatment of nasopharyngeal cancer” (priority 2003, published 2004)", "key": {"[1]": {"test_system": "human nasopharyngeal cancer", "type": "in vivo", "details": "tumor-bearing mice, 30 consecutive days of treatment, sacrificed on 31st day", "method": "The mice injected with tumor cells were divided into 4 experimental groups of ten mice per group and one control group. The four experimental groups were triplicated (i.e., using a total of 120 mice in the experimental groups).\nThe mice in group CK2 also started receiving saline on the same day as the other four groups. The biological compositions, untreated yeast cells and saline were administered orally by a feeding tube and the CTX by intravenous injection for 30 consecutive days."}, "[2]": {"test_system": "human nasopharyngeal cancer", "type": "in vivo, mice", "details": "for Number of live animals remaining in the groups after 30 days of treatment: mice, 30 per group", "method": "The biological composition comprising […] per ml of activated and conditioned yeast cells of the strain Saccharomyces carlsbergensis Hansen strain AS2.116 was prepared by the methods described in Section 5.1 and subsections therein.\nThe animals were prepared in a similar manner as described in Section 8.1.\n(§1) The mice injected with tumor cells were divided into 4 experimental groups of ten mice per group and one control group. The four experimental groups were triplicated (i.e., using a total of 120 mice in the experimental groups). In group 2AY, the mice received 0.3 ml of the biological composition once per day. In group 2NY, the mice received 0.3 ml of the untreated yeast cells once per day. In group 2CTX, the mice were injected intravenously with 30 mg of cyclophosphamide (CTX) per kg body weight per day. In group 2CK1, the mice received 0.3 ml of physiological saline once per day.\n(§2) The mice received the biological compositions, untreated yeast cells, CTX or saline on the same day as the tumor cells were transplanted. The mice in group 2CK2 also started receiving saline on the same day as the other four groups. The biological compositions, untreated yeast cells and saline were administered orally by a feeding tube and the CTX by intravenous injection for 30 consecutive days. The mice were observed over 6 months from the day of tumor inoculation and survival was recorded. The weight of the mice and the weight of the tumor were determined by standard techniques."}, "[3]": {"test_system": "human nasopharyngeal cancer", "assay": "rat model of human nasopharyngeal cancer, growth of the tumor", "type": "in vivo", "details": "tumor-bearing Wistar rats, 21 consecutive days of treatment, sacrificed on 22nd day", "method": "(§3) The biological composition comprising 10^8 cells per ml of activated and conditioned yeast cells of the strain Saccharomyces carlsbergensis Hansen strain AS2.116 was prepared by the methods described in Section 5.1 and subsections therein.\nThe animals used to generate the nasopharyngeal cancer cells for the experiments were Wistar rats, male and female, 190 to 210 gram in body weight. The rats were starved for 24 hours before the surgery.\nHuman nasopharyngeal cancer samples (obtainable from Cancer Institute, The Chinese Academy of Medical Sciences, Beijing, China) were carefully selected before, during, and after surgery in order to ensure engraftment occurred at the original position in the rat. The nasopharyngeal cancer samples were obtained from patients who have not received any radiation, chemotherapy or immune enhancement treatment. Nasopharyngeal cancer samples were divided into sections of about 1 mm^3 in size and immediately stored in RPMI-1640 suspension after removal from the human patient.\nThe animals were generally anaesthetized. […]\nThe rats received the biological compositions, untreated yeast cells, TSPA or saline on the same day as the tumor cells were transplanted. […] On the 22nd day from tumor inoculation, the rats were sacrificed and the weight of the rats as well as the weight of the tumor were determined by standard techniques."}, "[4]": {"test_system": "human nasopharyngeal cancer", "assay": "rat model of human nasopharyngeal cancer, survival time", "type": "in vivo, Wistar rats", "details": "for Number of live animals remaining in the groups after 21 days of treatment: rats, 30 per group", "method": "as §3\nThe animals were prepared in a similar manner as described in Section 6.1.\nas §1, with “rats transplanted” for “mice injected”, “rats” for “mice”, “2.0” for “0.3”, “2TSPA,” for “2CTX,”, “1.5” for “with 30”, “thiotepa (TSPA)” for “cyclophosphamide (CTX)”\nas §2, with “rats” for “mice”, “TSPA” for “CTX”, “21” for “30”"}, "[5]": {"details": "0 month after cessation of treatment"}, "[6]": {"details": "1 month after cessation of treatment"}, "[7]": {"details": "2 months after cessation of treatment"}, "[8]": {"details": "3 months after cessation of treatment"}, "[9]": {"details": "4 months after cessation of treatment"}, "[10]": {"details": "5 months after cessation of treatment"}, "[11]": {"details": "6 months after cessation of treatment"}, "[12]": {"details": "mice that survived, observed over 6 months"}, "[13]": {"details": "rats that survived, observed over 6 months"}}, "note": "Read-outs that look alike come from different tables or passages of the source."}
{"smiles": "O=P1(N(CCCl)CCCl)NCCCO1", "note": "(stereo not drawn) [CTX, cyclophosphamide]", "values": [{"measurement": "mean weight of mice and standard deviation", "setting": "[1]", "result": "19.7 ± 2.4", "unit": "g"}, {"measurement": "mean weight of tumor nodules and standard deviation", "setting": "[1]", "result": "0.86 ± 0.13", "unit": "g"}, {"measurement": "Number of live animals remaining in the groups after 30 days of treatment", "setting": "[2]; [5]", "result": 30}, {"measurement": "Number of live animals remaining in the groups after 30 days of treatment", "setting": "[2]; [6]", "result": 27}, {"measurement": "Number of live animals remaining in the groups after 30 days of treatment", "setting": "[2]; [7]", "result": 17}, {"measurement": "Number of live animals remaining in the groups after 30 days of treatment", "setting": "[2]; [8]", "result": 11}, {"measurement": "Number of live animals remaining in the groups after 30 days of treatment", "setting": "[2]; [9]", "result": 3}, {"measurement": "Number of live animals remaining in the groups after 30 days of treatment", "setting": "[2]; [10]", "result": 0}, {"measurement": "Number of live animals remaining in the groups after 30 days of treatment", "setting": "[2]; [11]", "result": 0}, {"measurement": "survival of mice", "setting": "[2]; observed over 6 months", "result": "all died during the experiment"}]}
{"smiles": "S=P(N1CC1)(N1CC1)N1CC1", "note": "[TSPA, thiotepa]", "values": [{"measurement": "mean weight of rats and standard deviation", "setting": "[3]", "result": "207 ± 3.8", "unit": "g"}, {"measurement": "mean weight of tumor nodules and standard deviation", "setting": "[3]", "result": "1.6 ± 0.74", "unit": "mg"}, {"measurement": "mean weight of mice and standard deviation", "setting": "[2]; [12]", "result": "all animals dead"}, {"measurement": "mean weight of tumor nodules and standard deviation", "setting": "[2]; [12]", "result": "all animals dead"}, {"measurement": "survival of rats", "setting": "[4]; from injection of tumor cells", "result": "all died after four months from injection of tumor cells"}, {"measurement": "mean weight of rats and standard deviation", "setting": "[4]; [13]", "result": "all animals dead"}, {"measurement": "mean weight of tumor nodules and standard deviation", "setting": "[4]; [13]", "result": "all animals dead"}, {"measurement": "Number of live animals remaining in the groups after 21 days of treatment", "setting": "[4]; [5]", "result": 30}, {"measurement": "Number of live animals remaining in the groups after 21 days of treatment", "setting": "[4]; [6]", "result": 26}, {"measurement": "Number of live animals remaining in the groups after 21 days of treatment", "setting": "[4]; [7]", "result": 24}, {"measurement": "Number of live animals remaining in the groups after 21 days of treatment", "setting": "[4]; [8]", "result": 17}, {"measurement": "Number of live animals remaining in the groups after 21 days of treatment", "setting": "[4]; [9]", "result": 7}, {"measurement": "Number of live animals remaining in the groups after 21 days of treatment", "setting": "[4]; [10]", "result": 0}, {"measurement": "Number of live animals remaining in the groups after 21 days of treatment", "setting": "[4]; [11]", "result": 0}]}
